Data from US12018059B2, “Human amylin analog polypeptides and methods of use” (Intarcia Therapeutics, Inc., priority 2018, dated 2024).
Read-outs that look alike come from different tables or passages of the source. Starred links: 1 amine or outer side, 2 acyl side, 3 side chain; linkers in the order of their positions; H or OH if unused. Positions of bridges follow the written chain, without caps; N, C: chain ends. Non-standard residues stand in square brackets, D forms with d. Residues, ends and D or L forms follow the SMILES beside them. Groups on a side chain read outwards from the residue. *: point of attachment. C20 diacid = O=C(O)CCCCCCCCCCCCCCCCCCC(=O)*; C18 diacid = O=C(O)CCCCCCCCCCCCCCCCC(=O)*; γGlu = O=C(O)[C@H](CCC(=O)[*:2])N[*:1]; AEEA = NCCOCCOCC(=O)O

Experiments:
in vivo = assay: in vivo; parameters: species or system Sprague-Dawley rats; details: rat, iv, 0.033 mg/kg
Summary of the method: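 Peptide plasma levels measured by UPLC-MS/MS (C18, product-ion monitoring) after protein precipitation or WCX SPE, calibrated in K2EDTA/protease-inhibitor rat plasma. Dosing in non-fasted male Sprague-Dawley rats (n=3): 0.033 mg/kg over 1 h by IV or SC infusion, or 0.3 mg/kg SC bolus; sampling up to 48 h.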

[1] = target: human amylin 3 receptor (hAMY3R) (Homo sapiens, UniProt O60896+P30988); assay: cAMP accumulation functional assay in HEK293-CNG cells expressing hAMY3R; format: cell-based
Chain of human amylin 3 receptor (hAMY3R) (O60896 24-148, one chain of several): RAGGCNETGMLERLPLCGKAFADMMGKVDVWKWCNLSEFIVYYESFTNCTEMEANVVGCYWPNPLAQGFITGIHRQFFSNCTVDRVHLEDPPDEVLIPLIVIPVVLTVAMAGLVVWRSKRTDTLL
Description: (§1) In the presence of the non-specific cAMP/cGMP phosphodiesterase inhibitor 3-isobutyl-1-methylxanthine (IBMX), accumulating cAMP can be measured in vitro using common detection methods. Thus, it is possible to estimate an in vitro potency (pEC50) for peptides activating each of these receptors using fit dose-response curves for cAMP accumulation.
(§2) Cells were carried in growth media for no more than 10 passages prior to testing.
(§3) Peptides were serially diluted in the same buffer as above for each given assay condition. Two assay control solutions consisting of 50 mcM forskolin (cAMP system maximum) or assay buffer only (cAMP system minimum) were also prepared in the appropriate stimulation buffers. Five microliters of each peptide-concentration, or assay control was added to triplicate wells and incubated for thirty minutes at room temperature. During this incubation step a 4× europium labelled cAMP tracer solution and a 4× Ulight®-anti-cAMP solution (consisting of an anti-cAMP monoclonal antibody labelled with Ulight™ dye) was prepared according to the manufacturer's protocol (PerkinElmer LANCE Ultra cAMP kit). Following this incubation, 5 mcL europium labelled cAMP and 5 mcL Ulight anti-cAMP antibody was added to wells. The plate was covered with an adhesive cover to prevent evaporation and incubated for 60 minutes at room temperature in the dark. Plates were read on an Envision fluorescent plate reader (PerkinElmer).
(§4) Test values were first normalized to the forskolin induced cAMP system maximum and system minimum averaged values in Excel using the formula: (test value−system minavg)/(system maxavg−system minavg)*100. Normalized test values represent a baseline corrected percentage of the system maximum cAMP response induced by forskolin. Normalized data was analyzed from triplicate tests and used to estimate the EC50 for each peptide on each receptor. Data was fit in GraphPad Prism software (v7.04) using a 4-parameter logistic curve model: Y=Bottom+(Top−Bottom)/(1+10^((Log EC50−X))). The Hill slope was constrained to 1.0. EC50 values were converted to pEC50 values using the formula: pEC50=−Log (EC50).

[2] = target: T1, human calcitonin receptor (hCTR) (Homo sapiens, UniProt P30988); assay: cAMP accumulation functional assay in HEK293-CNG cells expressing hCTR; format: cell-based
T1 sequence (P30988 25-474): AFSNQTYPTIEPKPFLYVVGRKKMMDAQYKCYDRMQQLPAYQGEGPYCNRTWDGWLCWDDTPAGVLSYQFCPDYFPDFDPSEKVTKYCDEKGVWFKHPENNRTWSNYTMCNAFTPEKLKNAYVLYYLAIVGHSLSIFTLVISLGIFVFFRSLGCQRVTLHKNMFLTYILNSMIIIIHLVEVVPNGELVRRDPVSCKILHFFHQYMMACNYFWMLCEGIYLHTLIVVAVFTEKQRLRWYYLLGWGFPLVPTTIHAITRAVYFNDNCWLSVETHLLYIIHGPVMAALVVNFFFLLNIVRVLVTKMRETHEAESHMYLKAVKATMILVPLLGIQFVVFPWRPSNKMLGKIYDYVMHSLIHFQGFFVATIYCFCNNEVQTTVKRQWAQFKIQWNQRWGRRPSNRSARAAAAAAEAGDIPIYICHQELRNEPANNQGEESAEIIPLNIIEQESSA
Description: as §1, §2, §3, §4

[3] = Pharmacokinetics, 3-hour intravenous infusion of linear (non-acylated) polypeptides; parameters: species or system Sprague-Dawley rats; details: rat, in vivo, iv, 0.1 mg/kg
[4] = 0% HSA, read-out: pEC50 hAMY3R 0% HSA (converted)
[5] = 4% HSA, read-out: pEC50 hAMY3R 4% HSA (converted)
[6] = pEC50 hAMY3R 0.1% HSA, 0.1% HSA
[7] = hCTR 0% HSA, 0% HSA, read-out: pEC50 hCTR 0% HSA (converted)
[8] = hCTR 4% HSA, 4% HSA, read-out: pEC50 hCTR 4% HSA (converted)

Structure (SMILES)	Vd (in vivo)	clearance (in vivo)	half-life (in vivo)	EC50 [1, 4]	EC50 [1, 5]	EC50 [1, 6]	EC50 [2, 7]	EC50 ([2]; hCTR 0.1% HSA, 0.1% HSA)	EC50 [2, 8]	clearance [3]
CC[C@H](C)[C@H](NC(=O)[C@@H]1CCCN1C(=O)CNC(=O)[C@H](Cc1ccccc1)NC(=O)[C@H](CC(N)=O)NC(=O)[C@H](CC(N)=O)NC(=O)[C@H](CO)NC(=O)[C@H](CO)NC(=O)[C@H](CCCCN)NC(=O)[C@H](Cc1c[nH]cn1)NC(=O)[C@H](CC(C)C)NC(=O)[C@H](CCC(=O)O)NC(=O)[C@H](CC(N)=O)NC(=O)[C@H](C)NC(=O)[C@H](CC(C)C)NC(=O)[C@H](CCCNC(=N)N)NC(=O)[C@H](CCC(N)=O)NC(=O)[C@@H](NC(=O)[C@H](C)NC(=O)[C@@H]1CSSC[C@H](NC(=O)[C@@H](N)CCCCNC(=O)CC[C@H](NC(=O)CCCCCCCCCCCCCCCCCCC(=O)O)C(=O)O)C(=O)N[C@@H](CC(N)=O)C(=O)N[C@@H]([C@@H](C)O)C(=O)N[C@@H](CO)C(=O)N[C@@H]([C@@H](C)O)C(=O)N1)[C@@H](C)O)C(=O)N[C@@H](CC(C)C)C(=O)N1CCC[C@H]1C(=O)N1CCC[C@H]1C(=O)N[C@H](C(=O)N[C@@H](CCCCN)C(=O)N[C@H](C(=O)NCC(=O)N[C@@H](CO)C(=O)N[C@@H](CCC(=O)O)C(=O)N[C@H](C(=O)N[C@@H](Cc1ccc(O)cc1)C(N)=O)[C@@H](C)O)C(C)C)[C@@H](C)O [Compound A119] (H-K([γGlu-C20 diacid])CNTSTCATQRLANELHKSSNNFGPILPPTKVGSETY-NH2; disulfide 2-7; N-terminus assumed)				0.00126 nM	3.16 nM	0.0631 nM	0.00631 nM	0.316 nM	12.6 nM	
CC[C@H](C)[C@H](NC(=O)[C@@H]1CCCN1C(=O)CNC(=O)[C@H](Cc1ccccc1)NC(=O)[C@H](CC(N)=O)NC(=O)[C@H](CC(N)=O)NC(=O)[C@H](CO)NC(=O)[C@H](CO)NC(=O)[C@H](CCCCN)NC(=O)[C@H](Cc1c[nH]cn1)NC(=O)[C@H](CC(C)C)NC(=O)[C@H](CCC(=O)O)NC(=O)[C@H](CC(N)=O)NC(=O)[C@H](C)NC(=O)[C@H](CC(C)C)NC(=O)[C@H](CCCNC(=N)N)NC(=O)[C@H](CCC(N)=O)NC(=O)[C@@H](NC(=O)[C@H](C)NC(=O)[C@@H]1CSSC[C@H](NC(=O)[C@@H](N)CCCCNC(=O)COCCOCCNC(=O)COCCOCCNC(=O)CC[C@H](NC(=O)CCCCCCCCCCCCCCCCC(=O)O)C(=O)O)C(=O)N[C@@H](CC(N)=O)C(=O)N[C@@H]([C@@H](C)O)C(=O)N[C@@H](CO)C(=O)N[C@@H]([C@@H](C)O)C(=O)N1)[C@@H](C)O)C(=O)N[C@@H](CC(C)C)C(=O)N1CCC[C@H]1C(=O)N1CCC[C@H]1C(=O)N[C@H](C(=O)N[C@@H](CCCCN)C(=O)N[C@H](C(=O)NCC(=O)N[C@@H](CO)C(=O)N[C@@H](CCC(=O)O)C(=O)N[C@H](C(=O)N[C@@H](Cc1ccc(O)cc1)C(N)=O)[C@@H](C)O)C(C)C)[C@@H](C)O [Compound A113] (H-K([AEEA-AEEA-γGlu-C18 diacid])CNTSTCATQRLANELHKSSNNFGPILPPTKVGSETY-NH2; disulfide 2-7)					1 nM	0.0251 nM	0.00501 nM	0.2 nM	7.94 nM	
CC[C@H](C)[C@H](NC(=O)[C@@H]1CCCN1C(=O)CNC(=O)[C@H](Cc1ccccc1)NC(=O)[C@H](CC(N)=O)NC(=O)[C@H](CC(N)=O)NC(=O)[C@H](CO)NC(=O)[C@H](CO)NC(=O)[C@H](CCCCN)NC(=O)[C@H](Cc1c[nH]cn1)NC(=O)[C@H](CC(C)C)NC(=O)[C@@H](CCCCNC(=O)CC[C@H](NC(=O)CC[C@H](NC(=O)COCCOCCNC(=O)CC[C@H](NC(=O)CCCCCCCCCCCCCCCCCCC(=O)O)C(=O)O)C(=O)O)C(=O)O)NC(=O)[C@H](CC(N)=O)NC(=O)[C@H](C)NC(=O)[C@H](CC(C)C)NC(=O)[C@H](CCCNC(=N)N)NC(=O)[C@H](CCC(N)=O)NC(=O)[C@@H](NC(=O)[C@H](C)NC(=O)[C@@H]1CSSC[C@H](NC(=O)[C@@H](N)CO)C(=O)N[C@@H](CC(N)=O)C(=O)N[C@@H]([C@@H](C)O)C(=O)N[C@@H](CO)C(=O)N[C@@H]([C@@H](C)O)C(=O)N1)[C@@H](C)O)C(=O)N[C@@H](CC(C)C)C(=O)N1CCC[C@H]1C(=O)N1CCC[C@H]1C(=O)N[C@H](C(=O)N[C@@H](CCCCN)C(=O)N[C@H](C(=O)NCC(=O)N[C@@H](CO)C(=O)N[C@@H](CCC(=O)O)C(=O)N[C@H](C(=O)N[C@@H](Cc1ccc(O)cc1)C(N)=O)[C@@H](C)O)C(C)C)[C@@H](C)O [Compound A100] (H-SCNTSTCATQRLAN[dK]([γGlu-γGlu-AEEA-γGlu-C20 diacid])LHKSSNNFGPILPPTKVGSETY-NH2; disulfide 2-7; N-terminus assumed)	0.14 L/kg	4.75 mL/h/kg	21.4 h	0.00794 nM	25.1 nM	1.58 nM	0.0316 nM	7.94 nM	79.4 nM	

The remaining lines, values ahead:

Vd (in vivo)	clearance (in vivo)	half-life (in vivo)	EC50 [1, 4]	EC50 [1, 5]	EC50 [1, 6]	EC50 [2, 7]	EC50 ([2]; hCTR 0.1% HSA, 0.1% HSA)	EC50 [2, 8]	clearance [3]	Structure (SMILES)
0.0998 L/kg	2.45 mL/h/kg	32.6 h	0.00251 nM	10 nM	0.501 nM	0.0126 nM	3.16 nM	31.6 nM		CC[C@H](C)[C@H](NC(=O)[C@@H]1CCCN1C(=O)CNC(=O)[C@H](Cc1ccccc1)NC(=O)[C@H](CC(N)=O)NC(=O)[C@H](CC(N)=O)NC(=O)[C@H](CO)NC(=O)[C@H](CO)NC(=O)[C@H](CCCCN)NC(=O)[C@H](Cc1c[nH]cn1)NC(=O)[C@H](CC(C)C)NC(=O)[C@H](CCC(=O)O)NC(=O)[C@H](CC(N)=O)NC(=O)[C@H](C)NC(=O)[C@H](CC(C)C)NC(=O)[C@H](CCCNC(=N)N)NC(=O)[C@H](CCC(N)=O)NC(=O)[C@@H](NC(=O)[C@H](C)NC(=O)[C@@H]1CSSC[C@H](NC(=O)[C@@H](N)CCCCNC(=O)CC[C@H](NC(=O)CC[C@H](NC(=O)COCCOCCNC(=O)COCCOCCNC(=O)CC[C@H](NC(=O)CCCCCCCCCCCCCCCCCCC(=O)O)C(=O)O)C(=O)O)C(=O)O)C(=O)N[C@@H](CC(N)=O)C(=O)N[C@@H]([C@@H](C)O)C(=O)N[C@@H](CO)C(=O)N[C@@H]([C@@H](C)O)C(=O)N1)[C@@H](C)O)C(=O)N[C@@H](CC(C)C)C(=O)N1CCC[C@H]1C(=O)N1CCC[C@H]1C(=O)N[C@H](C(=O)N[C@@H](CCCCN)C(=O)N[C@H](C(=O)NCC(=O)N[C@@H](CO)C(=O)N[C@@H](CCC(=O)O)C(=O)N[C@H](C(=O)N[C@@H](Cc1ccc(O)cc1)C(N)=O)[C@@H](C)O)C(C)C)[C@@H](C)O [Compound A112] (H-K([γGlu-γGlu-AEEA-AEEA-γGlu-C20 diacid])CNTSTCATQRLANELHKSSNNFGPILPPTKVGSETY-NH2; disulfide 2-7)
									864 mL/h/kg	CC[C@H](C)[C@H](NC(=O)[C@@H]1CCCN1C(=O)CNC(=O)[C@H](Cc1ccccc1)NC(=O)[C@H](CCC(=O)O)NC(=O)[C@H](CC(N)=O)NC(=O)[C@H](CO)NC(=O)[C@H](CO)NC(=O)[C@H](CCCCN)NC(=O)[C@@H](NC(=O)[C@H](CC(C)C)NC(=O)[C@H](Cc1ccc(O)cc1)NC(=O)[C@H](CC(N)=O)NC(=O)[C@H](C)NC(=O)[C@H](CC(C)C)NC(=O)[C@H](CCCNC(=N)N)NC(=O)[C@H](CCC(N)=O)NC(=O)[C@@H](NC(=O)[C@H](C)NC(=O)[C@@H]1CSSC[C@H](NC(=O)[C@@H](N)CO)C(=O)N[C@@H](CC(N)=O)C(=O)N[C@@H]([C@@H](C)O)C(=O)N[C@@H](CO)C(=O)N[C@@H]([C@@H](C)O)C(=O)N1)[C@@H](C)O)C(C)C)C(=O)N[C@@H](CC(C)C)C(=O)N1CCC[C@H]1C(=O)N1CCC[C@H]1C(=O)N[C@H](C(=O)N[C@@H](CCCCN)C(=O)N[C@H](C(=O)NCC(=O)N[C@@H](CO)C(=O)N[C@@H](CCC(=O)O)C(=O)N[C@H](C(=O)N[C@@H](Cc1ccc(O)cc1)C(N)=O)[C@@H](C)O)C(C)C)[C@@H](C)O [Compound A15] (H-SCNTSTCATQRLANYLVKSSNEFGPILPPTKVGSETY-NH2; disulfide 2-7)
